Source: patent US10800792B2, “Inhibitors of Bruton's tyrosine kinase and method of their use” (JANSSEN PHARMACEUTICA NV, priority 2015, dated 2020)

Biological target: unphosphorylated-BTK kinase domain (UP-BTK), GST-tagged human BTK (389-659aa) (Homo sapiens (Human), UniProt Q06187)
Assay: BTK kinase Lanthascreen binding assay
Details: Lanthascreen tracer competition, 60 minutes incubation; pIC50 = negative log of the IC50 in molar
Experimental: BTK Kinase Lanthascreen Binding Assay:
A BTK kinase lanthascreen binding assay monitors compound binding to unphosphorylated-BTK kinase domain (UP-BTK), by competing with a fluorescent labeled tracer. […] Data were analyzed using Xlfit™ version 5.3 from ID Business Solutions (Guildford), Microsoft Excel add-in. pIC50 refers to the negative log of the IC50 in molar

Sequence of unphosphorylated-BTK kinase domain (UP-BTK), GST-tagged human BTK (389-659aa) (Q06187 389-659): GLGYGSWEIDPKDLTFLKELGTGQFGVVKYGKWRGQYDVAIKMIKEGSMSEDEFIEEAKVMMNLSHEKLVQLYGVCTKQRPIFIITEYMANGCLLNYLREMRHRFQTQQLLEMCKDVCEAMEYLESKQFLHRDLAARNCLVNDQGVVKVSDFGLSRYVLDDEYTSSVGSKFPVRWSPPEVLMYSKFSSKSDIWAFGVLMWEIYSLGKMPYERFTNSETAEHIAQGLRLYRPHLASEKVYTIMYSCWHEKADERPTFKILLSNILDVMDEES

| SMILES | BTK_I_binding pIC50 |
| --- | --- |
| Cc1c(N2C(=O)Nc3c(C(=O)N[C@@H]4CCCNC4)sc4nccc2c34)ccnc1-c1ccccc1 [Example 733, (R)-5-(3-Methyl-2-phenylpyridin-4-yl)-4-oxo-N-(piperidin-3-yl)-4,5-dihydro-3H-1-thia-3,5,8-triazaacenaphthylene-2-carboxamide] | <6 |
| C=CC(=O)N1CCC[C@@H](NC(=O)c2sc3nccc4c3c2NC(=O)N4c2cc(-c3ccccc3)ncc2C)C1 [Example 695, (R)—N-(1-Acryloylpiperidin-3-yl)-5-(5-methyl-2-phenylpyridin-4-yl)-4-oxo-4,5-dihydro-3H-1-thia-3,5,8-triazaacenaphthylene-2-carboxamide] | 7.3 |
| CC(C)(C)OC(=O)N1CCC[C@@H](NC(=O)c2sc3nccc4c3c2NC(=O)N4c2cccc(C(C)(C)C)c2)C1 [Example 648, (R)-tert-Butyl 3-(5-(3-(tert-butyl)phenyl)-4-oxo-4,5-dihydro-3H-1-thia-3,5,8-triazaacenaphthylene-2-carboxamido)piperidine-1-carboxylate] | <5 |
| Cc1cc(Oc2ccccc2)ccc1N1C(=O)Nc2c(C(=O)N[C@@H]3CCCN(C(=O)/C=C/CN4CCCCC4)C3)sc3nccc1c23 [Example 900, (R,E)-5-(2-Methyl-4-phenoxyphenyl)-4-oxo-N-(1-(4-(piperidin-1-yl)but-2-enoyl)piperidin-3-yl)-4,5-dihydro-3H-1-thia-3,5,8-triazaacenaphthylene-2-carboxamide] | 6.8 |
| Cc1cc(OC(C)C)ncc1N1C(=O)Nc2c(C(=O)N[C@@H]3CCCNC3)sc3nccc1c23 (single isomer, unassigned) [Example 806, (R)-5-(*R)-(6-Isopropoxy-4-methylpyridin-3-yl)-4-oxo-N-(piperidin-3-yl)-4,5-dihydro-3H-1-thia-3,5,8-triazaacenaphthylene-2-carboxamide] | <6 |

Same assay, conditions: Lanthascreen tracer competition, 60 minutes incubation; pIC50 = negative log of the IC50 in molar; read-out: BTK_I_binding pIC50 (converted)

| SMILES | IC50 |
| --- | --- |
| Cc1cc(Oc2ccccc2)ccc1N1C(=O)Nc2c(NC(=O)C3CCCN(C(=O)/C(C#N)=C/C(C)(C)C)C3)sc3nccc1c23 (stereo not shown) [Example 816, (E)-1-(2-Cyano-4,4-dimethylpent-2-enoyl)-N-(5-(2-methyl-4-phenoxyphenyl)-4-oxo-4,5-dihydro-3H-1-thia-3,5,8-triazaacenaphthylen-2-yl)piperidine-3-carboxamide] | 1000 nM |

Same assay, conditions: pIC50 = negative log of the IC50 in molar; 60 minutes incubation, 50 nM Tracer 236

| SMILES | BTK_I_binding pIC50 |
| --- | --- |
| CCCN1CCC[C@@H](NC(=O)c2sc3nccc4c3c2NC(=O)N4c2ccc(Oc3ccccc3)cc2C)C1 [Example 60, (R)-5-(2-Methyl-4-phenoxyphenyl)-4-oxo-N-(1-propylpiperidin-3-yl)-4,5-dihydro-3H-1-thia-3,5,8-triazaacenaphthylene-2-carboxamide] | 6.8 |
| Cc1c(N2C(=O)Nc3c(C(=O)N[C@@H]4CCCN(C)C4)sc4nccc2c34)ccc(Oc2ccccc2)c1F [Example 59, (R)-5-(3-Fluoro-2-methyl-4-phenoxyphenyl)-N-(1-methylpiperidin-3-yl)-4-oxo-4,5-dihydro-3H-1-thia-3,5,8-triazaacenaphthylene-2-carboxamide] | 7.3 |
| CCN1CCC[C@@H](NC(=O)c2sc3nccc4c3c2NC(=O)N4c2ccc(Oc3ccccc3)cc2C)C1 [Example 74, (R)—N-(1-Ethylpiperidin-3-yl)-5-(2-methyl-4-phenoxyphenyl)-4-oxo-4,5-dihydro-3H-1-thia-3,5,8-triazaacenaphthylene-2-carboxamide] | 6.9 |

Same assay, conditions: unphosphorylated-BTK kinase domain, 50 nM Tracer 236, 60 minutes; pIC50 = negative log of the IC50 in molar

| SMILES | BTK_I_binding pIC50 |
| --- | --- |
| COC(C)(C)CC(=O)N1CCC[C@@H](NC(=O)c2sc3nccc4c3c2NC(=O)N4c2ccc(Oc3ccccc3)cc2C)C1 [Example 363, (R)—N-(1-(3-Methoxy-3-methylbutanoyl)piperidin-3-yl)-5-(2-methyl-4-phenoxyphenyl)-4-oxo-4,5-dihydro-3H-1-thia-3,5,8-triazaacenaphthylene-2-carboxamide] | 6.9 |
| C=CC(=O)N1CCC(CNC(=O)c2sc3nccc4c3c2NC(=O)N4c2ccc(Oc3ccccc3)cc2)C1 (stereo not shown) [Example 452, N-((1-Acryloylpyrrolidin-3-yl)methyl)-4-oxo-5-(4-phenoxyphenyl)-4,5-dihydro-3H-1-thia-3,5,8-triazaacenaphthylene-2-carboxamide] | 7.0 |
| O=C(N[C@@H]1CCCNC1)c1sc2nccc3c2c1NC(=O)N3c1ccc(Cc2ccccc2)cc1 [Example 430, (R)-5-(4-Benzylphenyl)-4-oxo-N-(piperidin-3-yl)-4,5-dihydro-3H-1-thia-3,5,8-triazaacenaphthylene-2-carboxamide] | 6.3 |
| C=CC(=O)N1CCC[C@@H](NC(=O)c2sc3nccc4c3c2NC(=O)N4c2cncc(-c3ccccc3)c2)C1 [Example 537, (R)—N-(1-Acryloylpiperidin-3-yl)-4-oxo-5-(5-phenylpyridin-3-yl)-4,5-dihydro-3H-1-thia-3,5,8-triazaacenaphthylene-2-carboxamide] | 7.6 |
| Cc1cc(Oc2ccccc2)ccc1N1C(=O)Nc2c(C(=O)N(C)[C@@H]3CCNC3)sc3nccc1c23 [Example 331, (R)—N-Methyl-5-(2-methyl-4-phenoxyphenyl)-4-oxo-N-(pyrrolidin-3-yl)-4,5-dihydro-3H-1-thia-3,5,8-triazaacenaphthylene-2-carboxamide] | 5.5 |

Same assay, conditions: unphosphorylated-BTK kinase domain, 60 minutes incubation, 50 nM Tracer 236; pIC50 = negative log of the IC50 in molar

| SMILES | BTK_I_binding pIC50 |
| --- | --- |
| C=CC(=O)N1CC[C@@H](NC(=O)c2sc3nccc4c3c2NC(=O)N4c2cnc(OC(C)C)cc2C)C1 (single isomer, unassigned) [Example 959, (R)—N-(1-Acryloylpyrrolidin-3-yl)-5-(*S)-(6-isopropoxy-4-methylpyridin-3-yl)-4-oxo-4,5-dihydro-3H-1-thia-3,5,8-triazaacenaphthylene-2-carboxamide] | 7.5 |
| COc1ccc(N2C(=O)Nc3c(C(=O)N[C@H]4CCCN(C(=O)/C(C#N)=C/C5CC5)C4)sc4nccc2c34)c(C)c1 [Example 946, (S,E)-N-(1-(2-Cyano-3-cyclopropylacryloyl)piperidin-3-yl)-5-(4-methoxy-2-methylphenyl)-4-oxo-4,5-dihydro-3H-1-thia-3,5,8-triazaacenaphthylene-2-carboxamide] | 5.4 |
| C=CC(=O)N1CC[C@@H](NC(=O)c2sc3nccc4c3c2NC(=O)N4c2ccc(Oc3cccnn3)nc2C)C1 [Example 974, (R)—N-(1-Acryloylpyrrolidin-3-yl)-5-(2-methyl-6-(pyridazin-3-yloxy)pyridin-3-yl)-4-oxo-4,5-dihydro-3H-1-thia-3,5,8-triazaacenaphthylene-2-carboxamide] | 5.6 |
| Cc1cc(Oc2ccccc2)ccc1N1C(=O)Nc2c(C(=O)NC3CCN(C(=O)CC#N)CC3)sc3nccc1c23 [Example 944, N-(1-(2-Cyanoacetyl)piperidin-4-yl)-5-(2-methyl-4-phenoxyphenyl)-4-oxo-4,5-dihydro-3H-1-thia-3,5,8-triazaacenaphthylene-2-carboxamide] | 5.6 |
| O=C(NCCN1CCCCC1)c1sc2nccc3c2c1NC(=O)N3c1ccc(Oc2ccccc2)cc1 [Example 932, 4-Oxo-5-(4-phenoxyphenyl)-N-(2-(piperidin-1-yl)ethyl)-4,5-dihydro-3H-1-thia-3,5,8-triazaacenaphthylene-2-carboxamide] | 6.1 |
